melting point	SMILES
179 to 182 °C	CC(C)C(=O)c1sc(NC(=O)c2ccncc2)nc1-c1ccco1 [Compound 393, N-[4-(2-Furyl)-5-isobutyrylthiazol-2-yl]pyridine-4-carboxamide]
178 to 182 °C	CC(C)C(=O)c1sc(NC(=O)C2CC2)nc1-c1ccco1 [Compound 394, N-[4-(2-Furyl)-5-isobutyrylthiazol-2-yl]cyclopropane carboxamide]
240 to 245 °C	CC(C)(C)C(=O)c1sc(NC(=O)c2ccncc2)nc1-c1ccco1 [Compound 400, N-[4-(2-Furyl)-5-pivaloylthiazol-2-yl]pyridine-4-carboxamide]
133 to 134 °C	CC(C)(C)C(=O)c1sc(NC(=O)C2CC2)nc1-c1ccco1 [Compound 401, N-[4-(2-Furyl)-5-pivaloylthiazol-2-yl]cyclopropanecarboxamide]
174 to 183 °C	COCC(=O)c1sc(NC(=O)c2ccc(Cl)nc2)nc1-c1ccco1 [Compound 404, 2-Chloro-N-[4-(2-furyl)-5-(methoxyacetyl)thiazol-2-yl]pyridine-5-carboxamide]
166 to 167 °C	COCC(=O)c1sc(NC(=O)c2ccc(F)cc2)nc1-c1ccco1 [Compound 405, 4-Fluoro-N-[4-(2-furyl)-5-(methoxyacetyl)thiazol-2-yl]benzamide]
198 to 200 °C	COCC#CC(=O)c1sc(NC(=O)c2ccncc2)nc1-c1ccco1 [Compound 413, N-[4-(2-Furyl)-5-(3-methoxypropa-1-ynylcarbonyl)thiazol-2-yl]pyridine-4-carboxamide]
225 to 230 °C (dec.)	O=C(Nc1nc(-c2ccco2)c(C(=O)C2CC2)s1)c1ccncc1 [Compound 417, N-[5-(Cyclopropylcarbonyl)-4-(2-furyl)thiazol-2-yl]pyridine-4-carboxamide]
150 to 154 °C	COc1ccccc1C(=O)Nc1nc(-c2ccco2)c(C(=O)C2CC2)s1 [Compound 420, N-[5-(Cyclopropylcarbonyl)-4-(2-furyl)thiazol-2-yl]-2-methoxybenzamide]
125 to 160 °C (dec.)	Nc1nc(-c2ccco2)c(C(=O)C2CCC2)s1 [Compound 423, 2-Amino-4-(2-furyl)thiazol-5-yl cyclobutyl ketone]
227 to 235 °C (dec.)	O=C(Nc1nc(-c2ccco2)c(C(=O)C2CCC2)s1)c1ccncc1 [Compound 424, N-[5-(Cyclobutylcarbonyl)-4-(2-furyl)thiazol-2-yl]pyridine-4-carboxamide]
188 to 192 °C	O=C(Nc1nc(-c2ccco2)c(C(=O)C2CCC2)s1)c1ccco1 [Compound 425, N-[5-(Cyclobutylcarbonyl)-4-(2-furyl)thiazol-2-yl]furan-2-carboxamide]
220 to 225 °C	N#Cc1ccc(C(=O)Nc2nc(-c3ccco3)c(C(=O)C3CCC3)s2)cc1 [Compound 426, 4-Cyano-N-[5-(cyclobutylcarbonyl)-4-(2-furyl)thiazol-2-yl]benzamide]
200 to 205 °C	O=C(Nc1nc(-c2ccco2)c(C(=O)C2CCC2)s1)C1CC1 [Compound 427, N-[5-(Cyclobutylcarbonyl)-4-(2-furyl)thiazol-2-yl]cyclopropanecarboxamide]
182 to 187 °C	O=C(Nc1nc(-c2ccco2)c(C(=O)C2CCCC2)s1)C1CC1 [Compound 434, N-[5-(Cyclopentylcarbonyl)-4-(2-furyl)thiazol-2-yl]cyclopropanecarboxamide]
108 to 110 °C	O=C(c1sc(NC(=O)N2CCOCC2)nc1-c1ccco1)C1CCCC1 [Compound 435, N-[5-(Cyclopentylcarbonyl)-4-(2-furyl)thiazol-2-yl]-morpholine-4-carboxamide]
180 to 187 °C	COC1CCC(C(=O)c2sc(NC(=O)c3ccncc3)nc2-c2ccco2)CC1 (stereo not drawn) [Compound 442, N-[4-(2-Furyl)-5-(4-methoxycyclohexylcarbonyl)thiazol-2-yl]pyridine-4-carboxamide]
105 to 109 °C	COC1CCC(C(=O)c2sc(NC(=O)c3ccc(C#N)cc3)nc2-c2ccco2)CC1 (stereo not drawn) [Compound 443, 4-Cyano-N-[4-(2-furyl)-5-(4-methoxycyclohexylcarbonyl)thiazol-2-yl]benzamide]
206 to 212 °C	O=C1CCC(C(=O)c2sc(NC(=O)c3ccncc3)nc2-c2ccco2)CC1 [Compound 448, N-[4-(2-Furyl)-5-(4-oxocyclohexylcarbonyl)thiazol-2-yl]pyridine-4-carboxamide]
108 to 115 °C	Cc1cc(C(=O)Nc2nc(-c3ccco3)c(C(=O)C3CCC(=O)CC3)s2)ccn1 [Compound 449, N-[4-(2-Furyl)-5-(4-oxocyclohexylcarbonyl)thiazol-2-yl]-2-methylpyridine-4-carboxamide]
232 to 235 °C	O=C1CCC(C(=O)c2sc(NC(=O)c3ccco3)nc2-c2ccco2)CC1 [Compound 450, N-[4-(2-Furyl)-5-(4-oxocyclohexylcarbonyl)thiazol-2-yl]furan-2-carboxamide]
176 to 183 °C	COc1cccc(C(=O)Nc2nc(-c3ccco3)c(C(=O)C3CCC(=O)CC3)s2)c1 [Compound 451, N-[4-(2-Furyl)-5-(4-oxocyclohexylcarbonyl)thiazol-2-yl]-3-methoxybenzamide]
211 to 212 °C	N#Cc1ccc(C(=O)Nc2nc(-c3ccco3)c(C(=O)C3CCC(=O)CC3)s2)cc1 [Compound 452, 4-Cyano-N-[4-(2-furyl)-5-(4-oxocyclohexylcarbonyl)thiazol-2-yl]benzamide]
221 to 222 °C	O=C(Nc1nc(-c2ccco2)c(C(=O)C2CCOCC2)s1)c1ccccc1 [Compound 457, N-[4-(2-Furyl)-5-(tetrahydropyran-4-ylcarbonyl)thiazol-2-yl]benzamide]
204 to 206 °C	Cc1ccccc1C(=O)Nc1nc(-c2ccco2)c(C(=O)C2CCOCC2)s1 [Compound 458, N-[4-(2-Furyl)-5-(tetrahydropyran-4-ylcarbonyl)thiazol-2-yl]-2-methylbenzamide]
197 to 201 °C	Cc1cccc(C(=O)Nc2nc(-c3ccco3)c(C(=O)C3CCOCC3)s2)c1 [Compound 459, N-[4-(2-Furyl)-5-(tetrahydropyran-4-ylcarbonyl)thiazol-2-yl]-3-methylbenzamide]
190 to 192 °C	Cc1ccc(C(=O)Nc2nc(-c3ccco3)c(C(=O)C3CCOCC3)s2)cc1 [Compound 460, N-[4-(2-Furyl)-5-(tetrahydropyran-4-ylcarbonyl)thiazol-2-yl]-4-methylbenzamide]
181 to 184 °C	COc1ccccc1C(=O)Nc1nc(-c2ccco2)c(C(=O)C2CCOCC2)s1 [Compound 461, N-[4-(2-Furyl)-5-(tetrahydropyran-4-ylcarbonyl)thiazol-2-yl]-2-methoxybenzamide]
184 to 188 °C	COc1ccc(C(=O)Nc2nc(-c3ccco3)c(C(=O)C3CCOCC3)s2)cc1 [Compound 463, N-[4-(2-Furyl)-5-(tetrahydropyran-4-ylcarbonyl)thiazol-2-yl]-4-methoxybenzamide]
239 to 243 °C	CN(C)c1cccc(C(=O)Nc2nc(-c3ccco3)c(C(=O)C3CCOCC3)s2)c1 [Compound 464, 3-(Dimethylamino)-N-[4-(2-furyl)-5-(tetrahydropyran-4-ylcarbonyl)thiazol-2-yl]benzamide]

From US7718808B2, “Thiazole derivatives” (Kyowa Hakko Kirin Co., Ltd., priority 2003, dated 2010)
